Assays:
[1] = system: mouse model of acute depression; assay: Tail-suspension test, mouse model of acute depression; type: in vivo, ICR mice; settings: 3 days; for Average Duration of Immobile State (Mean ± Standard Deviation), female: female ICR mice, model control 170.57 ± 28.43; for Average Duration of Immobile State (Mean ± Standard Deviation), female / Average Duration of Immobile State (Mean ± Standard Deviation), male: 26.0 mg/kg intraperitoneal, tested 24 h after administration, last 4 of 6 min, n = 5, 26 mg/kg; for Average Duration of Immobile State (Mean ± Standard Deviation), male: male ICR mice, model control 151.23 ± 35.02
Procedure: The experimental animals were administered drugs according to the grouping after 3 days of adaptive feeding. The experimental groups included the model group, the compound TM1 group, and the compound TM2 group. For each group of compounds to be tested, edible oil was used as the vehicle, and the administration route for all animals was intraperitoneal injection. The vehicle control group was given the same volume of edible oil by intraperitoneal injection, and the administration volume for each group was 20 mL/kg.
Brexanolone is used to treat postpartum depression. Its usage and dosage are continuous intravenous injection for 60 hours, with a dosage of 100 mg every 12 hours. At the beginning of the administration, it is necessary to gradually increase the drug use rate, and at the end of the administration, it is necessary to gradually decrease the drug use rate. Therefore, the total drug use within the treatment cycle is 450 mg. Referring to the Brexanolone administration cycle, the administration cycle was set to 3 days, with one administration in the morning every day.
The clinical dosage of Brexanolone is approximately 200 mg/d. Calculated based on an adult weight of 70 kg, the clinical dose of Brexanolone is 2.857 mg/kg/d. The equivalent dose conversion coefficient between humans and mice calculated according to body surface area is 0.0026. Taking the weight of mice as 20 g, the converted dose for mice is: 2.857 mg/kg/d×70 kg×0.0026/0.02 kg=25.999 mg/kg/d, which is counted as 26.0 mg/kg/d.
This study is for validity verification, and single-dose detection is used for the time being. The administration cycle and clinical dosage of the compounds of the present invention refer to the administration cycle and clinical dosage of Brexanolone mentioned above.
The detection indicator is the behavioral changes of mice in the last 4 minutes within 6 minutes, including the time when the immobile state first appears and the duration of the immobile state. Among them, the immobile state refers to the state in which the animal gives up active struggling and remains completely still.
Detection method: 24 hours after the administration of drugs to animals in each group, the animals in each group were placed in the laboratory for 30 minutes to 1 hour to reduce the animals' anxiety about the new environment. Install a video camera in front of the tail suspension box, set the corresponding parameters in the software, and enter the information such as the animal number and status. Take out the experimental animals, mark them with a marker pen at a position […] away from the tip of the tail, fix the tail at the marked position with medical tape. After the tails of the animals in the same group are fixed with tape, quickly suspend the mice in the same group into the tail suspension box device, turn on the behavioral software to record the behavioral situation for 6 minutes, and analyze the behavioral changes in the last 4 minutes.

[2] = system: GABAa receptor chloride ion channel of U251 cells; assay: MQAE chloride ion fluorescent probe test on U251 cells (GABA-activated chloride channel); type: cell-based, human; settings: sample 10 μM (Table 1), GABA in matrix, 1 min after addition, n = 6, vehicle control 42.543 ± 4.202
[3] = system: GABAA receptor (primary hippocampal neuronal cells); assay: Whole-cell patch clamp of GABA receptor currents in primary hippocampal neuronal cells; type: cell-based, SD suckling mice; settings: average

| Compound | Average Duration of Immobile State (Mean ± Standard Deviation), female [1] | Average Duration of Immobile State (Mean ± Standard Deviation), male [1] | Average fluorescence intensity (mean ± standard deviation) [2] | immobility time prolonged compared with the model control group, male animals ([1]; male mice, 26.0 mg/kg i.p.) | The percentage increase after calibration with GABA 15 μM as the reference, GABA 15 μM + TM 18 0.01 μM ([3]; TM 18 0.01 μM with GABA 15 μM) | The percentage increase after calibration with GABA 15 μM as the reference, GABA 15 μM + TM 18 0.1 μM ([3]; TM 18 0.1 μM with GABA 15 μM) | The percentage increase after calibration with GABA 15 μM as the reference, GABA 15 μM + TM 18 1 μM ([3]; TM 18 1 μM with GABA 15 μM) |
| --- | --- | --- | --- | --- | --- | --- | --- |
| CC1(O)CCC2(C)C(CCC3C2CCC2(C)C(C(=O)Cn4cc(C#N)cn4)CCC32)C1 (stereo not shown) [TM17] | 198.88 ± 15.08 s | 177.67 ± 20.05 s | 47.499±2.240 |  |  |  |  |
| CC1(O)CCC2(C)C(CCC3C2CCC2(C)C(C(=O)Cn4cc(C#N)cn4)CCC32)C1 (stereo not shown) [TM18] | 174.02 ± 18.28 s | 193.80 ± 15.62 s | 48.621±1.006 | about 20% | 129.85% | 288.44% | 108.82% |

Source: US20250179113A1, “STEROID COMPOUND FOR TREATING CENTRAL NERVOUS SYSTEM DISEASE, METHOD FOR PREPARING SAME, AND USE AND PHARMACEUTICAL COMPOSITION THEREOF” (HUNAN KYF PHARMACEUTICAL CO., LTD., priority 2022, published 2025)
